Columns and labels:
[1] = tested on: T. cruzi epimastigotes (Tulahuen CL98 strain); assay: Antitrypanosomal activity assay; type: cell-based, Trypanosoma cruzi; conditions: for Selectivity index (Cytotoxicity/ Activity): ratio of IC50 for fibroblast cells/ IC50 for parasites; for IC50: Trypanosoma cruzi, TULAHUEN, 48 h, read-out: Antitrypanocidal activity IC50
[2] = Antitrypanosomal activity assay; type: cell-based, Trypanosoma cruzi; conditions: mouse (fibroblasts) / Trypanosoma cruzi (parasites)
Cytotoxicity assay = type: cell-based; conditions: mouse, Balb/C 3T3 mouse fibroblasts (clone A31)
T. cruzi epimastigotes = conditions: ref Ramos et al., 2009; cited from earlier work

O=C1C(Cl)=C(N2C(=O)CCC2=O)C(=O)c2ccccc21 [IMDNQ1]
Selectivity index (Cytotoxicity/ Activity) [1]: 60.25 ± 2.79

O=C1C(Cl)=C(N2C(=O)c3ccccc3C2=O)C(=O)c2ccccc21 [IMDNQ2]
Selectivity index (Cytotoxicity/ Activity) [1]: 53.97 ± 5.95

O=C1C(Cl)=C(N(C(=O)c2cccc(Cl)c2)C(=O)c2cccc(Cl)c2)C(=O)c2ccccc21 [IMDNQ10, 3-Chloro-N-(3-chlorobenzoyl)-N-(3-chloro-1,4-dioxo-1,4-dihydronaphthalen-2-yl)-benzamide]
selectivity ratio at 48 h [2]: 275 ± 13.7
IC50 [1]: 2.23 ± 0.15 µM

O=C1C(Cl)=C(N(C(=O)c2ccc(F)cc2)C(=O)c2ccc(F)cc2)C(=O)c2ccccc21 [IMDNQ9, N-(3-Chloro-1,4-dioxo-1,4-dihydronaphthalen-2-yl)-4-fluoro-N-(4-fluorobenzoyl)-benzamide]
IC50 [1]: 4.07 ± 0.23 µM
IC50 at 48 h (Cytotoxicity assay): 21.8 ± 1.88 µM

CC1CS(=O)(=O)CCN1/N=C/c1ccc([N+](=O)[O-])o1 (stereo not shown) [Nifurtimox, reference compound]
IC50 [1]: 10.7 ± 1.01 µM

O=C1C(Cl)=C(N(C(=O)CCl)C(=O)CCl)C(=O)c2ccccc21 [IMDNQ11]
Selectivity index (Cytotoxicity/ Activity) [1]: 3.20 ± 0.44

O=C1C(Cl)=C(N(C(=O)c2ccccc2Cl)C(=O)c2ccccc2Cl)C(=O)c2ccccc21 [IMDNQ8, 2-Chloro-N-(2-chlorobenzoyl)-N-(3-chloro-1,4-dioxo-1,4-dihydronaphthalen-2-yl)-benzamide]
IC50 [1]: 2.67 ± 0.33 µM
IC50 at 48 h (Cytotoxicity assay): 26.5 ± 1.61 µM

O=C1C(Br)=C(N(C(=O)c2ccc(F)cc2)C(=O)c2ccc(F)cc2)C(=O)c2ccccc21 [IMDNQ5, N-(3-Bromo-1,4-dioxo-1,4-dihydronaphthalen-2-yl)-4-fluoro-N-(4-fluorobenzoyl)-benzamide]
IC50 [1]: 2.27 ± 0.15 µM
IC50 at 48 h (Cytotoxicity assay): 12.8 ± 0.73 µM

O=C1C(c2ccccc2)=C(c2ccccc2)C(=O)c2ccccc21 [DPNQ, 2,3-diphenyl-1,4-naphthoquin-one]
LD50 (T. cruzi epimastigotes): 2.5 µM

CCCC(=O)N(C(=O)CCC)C1=C(Cl)C(=O)c2ccccc2C1=O [IMDNQ3]
Selectivity index (Cytotoxicity/ Activity) [1]: 31.83 ± 3.17

O=C1C(Cl)=C(N2C(=O)COCC2=O)C(=O)c2ccccc21 [IMDNQ4]
Selectivity index (Cytotoxicity/ Activity) [1]: 7.43 ± 0.97

O=C1C(Br)=C(N(C(=O)c2ccccc2Cl)C(=O)c2ccccc2Cl)C(=O)c2ccccc21 [IMDNQ6, N-(3-Bromo-1,4-dioxo-1,4-dihydronaphthalen-2-yl)-2-chloro-N-(2-chlorobenzoyl)-benzamide]
IC50 at 48 h (Cytotoxicity assay): 14.2 ± 1.42 µM

From publication PMC3666932 (Archives of pharmacal research, 2012)
